Measurements from publication PMC11239005, “Preclinical studies of RA475, a guanidine-substituted spirocyclic candidate RPN13/ADRM1 inhibitor for treatment of ovarian cancer” (PLOS ONE, 2024).
Where “and” joins values, the source holds several entries; their conditions need not be identical. Equal values may be shown once. Read-outs that look alike come from different tables or passages of the source.

Experiments:
[1] = Single dose plasma pharmacokinetics in CD1 mice; assay type: in vivo, mouse
Experimental: For single dose pharmacokinetic studies, plasma samples (40 μL) were mixed with 200 μL of a water-methanol (1:9, v/v) containing the internal standard elacridar at 80 ng/mL. After mixing by pipetting and centrifuging for 4 min at 5500 x g, 0.25 μL of the supernatant was injected into LC-MS/MS system. […] Mobile phase A was acetonitrile/water (5:95, v/v) containing 1% formic acid, and mobile phase B was acetonitrile containing 0.1% formic acid. The gradient was initiated with mobile phase B at 10% with a flow rate of 0.4 mL/min, increased to 100% over 0.9 min and then and held for 0.1 min, and returned back to 10% mobile phase B and allowed to equilibrate until 2.2 min. An SCIEX 5000 triple quadrupole mass spectrometer operated in positive electrospray ionization mode was used for the detection of RA475. The lower limit of quantitation (LLOQ) in plasma was 10 ng/mL.
Pharmacokinetic parameters were calculated from mean concentration-time data using non-compartmental methods in Phoenix WinNonlin version 8.3 (Certara, Princeton, NJ). Concentrations after the time 0 sample that were below the LLOQ were imputed with ½ that value (1 ng/mL). Any concentration that was determined to be an outlier by the Grubbs’s outlier test were excluded from analysis. The maximum plasma concentration (Cmax) and time to Cmax (Tmax) were the observed values. The AUClast was calculated using the log-linear trapezoidal method. AUC was extrapolated to infinity (AUCINF) by dividing the last quantifiable concentration by the terminal disposition rate constant (λz). The λz was determined from at least 3 points on the slope of the terminal phase of the concentration-time profile. The terminal half-life (T1/2) was determined by dividing 0.693 by λz. Clearance (Cl) or apparent Cl (Cl/F) was calculated by dividing the dose administered by AUCINF. Volume of distribution (V) or apparent V (V/F) was calculated by dividing Cl or Cl/F by λz. […] The oral and IP bioavailability was calculated as: F(%)=DoseIV×AUCINFPO/DosePO×[…].100%
The Method of Bailer was used to estimate the variance of AUC given the calculated variance of the mean concentration at each time point. A pairwise comparison utilizing Z test was used to determine whether there was a significant difference between RA475 exposures as expressed by AUC last. Additionally, the Up284 exposure was truncated to 8 h and compared to the same route of administration and exposure as RA475. In all cases, p < 0.05 was considered statistically significant.
CD1 (n = 4 per time point and condition; 8 weeks old, 26.8±3g) mice were administered a single dose of RA475, either IV (10 mg/kg), PO (40 mg/kg), or IP (40 mg/kg), and thereafter serial blood plasma samples were analyzed for RA475 levels by LC–MS/MS. The animals were randomly assigned to the treatment groups (S9 Table) and fasted for 4 h before dosing. Eight time points for IV and IP (0.083, 0.25, 0.5, 1, 2, 4, 6, and 8 h) and seven time points for PO (0.25, 0.5, 1, 2, 4, 6, and 8) administration were set for this pharmacokinetic study. Mice were injected IP with 2,2,2-tribromoethanol at the dose of 150 mg/kg prior to drawing the blood in microtainers containing K3EDTA via retro-orbital bleeding. Blood samples were centrifuged 10 min at 3000 rpm. All samples were immediately processed, flash-frozen and stored at -70°C until subsequent analysis. No obvious adverse effects were observed during this PK study. The average RA475 plasma concentrations data for IV, IP, and PO dosed groups (S10–S12 Tables) is graphically presented in Fig 4, and may be compared to published data for Up284 [37]. Pharmacokinetic parameters were calculated from mean concentration-time data using non-compartmental methods in Phoenix WinNonlin version 8.3 (Certara, Princeton, NJ) (S13 Table). Using the Method of Bailer, there was no difference in dose normalized AUClast by any route of administration of RA475.

[2] = design: method as in PMID 37315065; details: mice; cited from earlier work
[3] = male, CD1, mouse, plasma, ip, 40 mg/kg, IP 40 mg/Kg
[4] = male, CD1, mouse, plasma, po, 40 mg/kg, PO 40 mg/Kg
[5] = male, CD1, mouse, plasma, IP 40 mg/kg
[6] = male, CD1, mouse, plasma, IV 10 mg/kg
[7] = male, CD1, mouse, plasma, PO 40 mg/kg

In the case of `Cl.Cl.N#Cc1ccc(/C=C2/C(=O)/C(=C/c3ccc(C#N)cc3)C23CCN(C(=N)N)CC3)cc1` [RA475, 1,3-bis((E)-4-cyanobenzylidene)-2-oxo-7-azaspiro[3.5]nonane-7-carboximidamide dihydrochloride], the concentration at 360 min ([1]; CD1, mouse, plasma, ip, 40 mg/kg, IP 40 mg/Kg, 360 min, read-out: Plasma concentration, Group A-D) is reported as 327 ng/mL, the bioavailability ([1]; CD1, mouse, plasma, IP 40 mg/kg) is reported as 103% and the bioavailability ([1]; CD1, mouse, plasma, PO 40 mg/kg) is reported as 1.1%. The “Plasma concentration, Group A-D” value ([1]; IP 40 mg/Kg, 240 min, 40 mg/kg) was 484 ng/mL and 577 ng/mL and 614 ng/mL, the “Plasma concentration, Group A-D” value ([1]; IP 40 mg/Kg, 480 min, 40 mg/kg) was 118 ng/mL and 174 ng/mL and 125 ng/mL and the “Plasma concentration, Group A-D” value ([1]; PO 40 mg/Kg, 30 min, 40 mg/kg) was 60 ng/mL and 57 ng/mL and 52 ng/mL. The “Plasma concentration, Group A-D” value ([1]; PO 40 mg/Kg, 60 min, 40 mg/kg) was 33 ng/mL and 35 ng/mL and 44 ng/mL, the “Plasma concentration, Mean” value ([1]; PO 40 mg/Kg, 240 min) was “BQL” and the “Plasma concentration, Mean” value ([1]; PO 40 mg/Kg, 360 min) was “BQL”. For the same molecule, the “Plasma concentration, Group A-D” value ([1]; PO 40 mg/Kg, 360 min, LLOQ 10 ng/mL) was “BQL”, the “Plasma concentration, Mean” value ([1]; PO 40 mg/Kg, 480 min) was “BQL” and the “Plasma concentration, Group A-D” value ([1]; PO 40 mg/Kg, 480 min, LLOQ 10 ng/mL) was “BQL”. For the same molecule, the “dose-normalized Cmax, fold higher than Up284” value ([1]; RA475 vs Up284) was 2.3 fold, the concentration at 15 min [1, 3] was 11500 ng/mL and the concentration at 30 min ([1]; male, CD1, mouse, plasma, ip, 40 mg/kg, IP 40 mg/Kg, 30 min, read-out: Plasma concentration, Mean) was 9350 ng/mL. For the same molecule, the concentration at 60 min ([1]; male, CD1, mouse, plasma, ip, 40 mg/kg, IP 40 mg/Kg, 60 min, read-out: Plasma concentration, Mean) was 3580 ng/mL, the concentration at 120 min [1, 3] was 969 ng/mL and the concentration at 240 min ([1]; male, CD1, mouse, plasma, ip, 40 mg/kg, IP 40 mg/Kg, 240 min, read-out: Plasma concentration, Group A-D) was 356 ng/mL. For the same molecule, the concentration at 240 min ([1]; male, CD1, mouse, plasma, ip, 40 mg/kg, IP 40 mg/Kg, 240 min, read-out: Plasma concentration, Mean) was 508 ng/mL, the concentration at 360 min ([1]; male, CD1, mouse, plasma, ip, 40 mg/kg, IP 40 mg/Kg, 360 min, read-out: Plasma concentration, Mean) was 125 ng/mL and the concentration at 480 min ([1]; male, CD1, mouse, plasma, ip, 40 mg/kg, IP 40 mg/Kg, 480 min, read-out: Plasma concentration, Group A-D) was 105 ng/mL. It also gave a concentration at 480 min ([1]; male, CD1, mouse, plasma, ip, 40 mg/kg, IP 40 mg/Kg, 480 min, read-out: Plasma concentration, Mean) of 131 ng/mL, a concentration at 15 min [1, 4] of 141 ng/mL and a concentration at 30 min ([1]; male, CD1, mouse, plasma, po, 40 mg/kg, PO 40 mg/Kg, 30 min, read-out: Plasma concentration, Group A-D) of 69 ng/mL. It also gave a concentration at 30 min ([1]; male, CD1, mouse, plasma, po, 40 mg/kg, PO 40 mg/Kg, 30 min, read-out: Plasma concentration, Mean) of 60 ng/mL, a concentration at 60 min ([1]; male, CD1, mouse, plasma, po, 40 mg/kg, PO 40 mg/Kg, 60 min, read-out: Plasma concentration, Group A-D) of 29 ng/mL and a concentration at 60 min ([1]; male, CD1, mouse, plasma, po, 40 mg/kg, PO 40 mg/Kg, 60 min, read-out: Plasma concentration, Mean) of 35 ng/mL. The concentration at 120 min [1, 4] was 20 ng/mL, the concentration at 240 min ([1]; male, CD1, mouse, plasma, po, 40 mg/kg, PO 40 mg/Kg, 240 min, LLOQ 10 ng/mL, read-out: Plasma concentration, Group A-D) was 20 ng/mL and the AUC(0-t) [1, 5] was 11300 ng·h/mL. It also gave a Cmax [1, 5] of 11500 ng/mL, a Tmax [1, 5] of 15 min and an AUC(0-inf) [1, 6] of 2780 ng·h/mL. For the same molecule, the AUC(0-t) [1, 6] was 2730 ng·h/mL, the Cmax [1, 6] was 10500 ng/mL and the half-life [1, 6] was 126 min. For the same molecule, the AUC(0-inf) [1, 7] was 139 ng·h/mL, the AUC(0-t) [1, 7] was 118 ng·h/mL and the Cmax [1, 7] was 142 ng/mL. The Tmax [1, 7] was 15 min, the half-life [1, 7] was 96 min and the CL/F ([1]; male, CD1, mouse, plasma, PO 40 mg/kg, read-out: Cl or Cl/F (converted)) was 4810 mL/min/kg. The Tmax ([1]; mouse, plasma, IV 10 mg/kg, male CD1 mice) was 4.98 min, the “Cl or Cl/F” value ([1]; plasma, IV 10 mg/kg) was 3.6 mL/min/kg and the “V or V/F” value ([1]; plasma, IV 10 mg/kg) was 10.9 L/kg. For the same molecule, the “V or V/F” value ([1]; plasma, PO 40 mg/kg) was 668.1 L/kg.
For `N#Cc1ccc(/C=C2/C(=O)/C(=C/c3ccc(C#N)cc3)C23CCNCC3)cc1` [Up284, reference compound], the IP bioavailability [2] is given as 87% and the oral bioavailability [2] is given as 23%.
